Measurements as given in US20220289794A1, “SYNTHETIC ANTIMICROBIAL PEPTIDES” (priority 2019, published 2022).
In brackets after ≈: the same amount, converted by molar mass. Read-outs that look alike come from different tables or passages of the source. Positions of bridges follow the written chain, without caps; N, C: chain ends. Residues, ends and D or L forms follow the SMILES beside them.

Key:
[1] = test system: Methicillin-resistant Staphylococcus aureus MRSA (ATCC BAA-1556); conditions: ATCC BAA-1556
[2] = test system: Escherichia coli (E. Coli, ATCC 25922); conditions: Table 26, Escherichia coli (ATCC 25922)
[3] = test system: Methicillin-resistant Staphylococcus aureus MRSA (ATCC BAA-1556); conditions: ATCC BAA-1556; remark: listed apart in the source
[4] = test system: Klebsiella pneumoniae (KPC, ATCC BAA-1705); conditions: Table 26, Klebsiella pneumoniae (ATCC BAA-1705)
[5] = test system: Klebsiella pneumoniae (KPC, ATCC BAA-1705); conditions: ATCC BAA-1705
[6] = test system: Pseudomonas aeruginosa (PSA, ATCC 27883); conditions: ATCC 27883
[7] = test system: Klebsiella pneumoniae (ATCC BAA-1705); conditions: ATCC BAA-1705
[8] = test system: Pseudomonas aeruginosa (PSA, ATCC 27883); assay: Synergy checkerboard assay (FIC index); assay type: cell-based; conditions: Table 26, Pseudomonas aeruginosa (ATCC 27883)
[9] = test system: Escherichia coli (ATCC 25922); conditions: ATCC 25922
[10] = test system: Pseudomonas aeruginosa (ATCC 27883); conditions: ATCC 27883
[11] = test system: Escherichia coli (E. Coli, ATCC 25922); conditions: ATCC 25922
[12] = test system: MRSA (ATCC BAA-1556); conditions: Table 26, MRSA (ATCC BAA-1556)
[13] = test system: Methicillin-resistant Staphylococcus aureus MRSA (ATCC BAA-1556); assay type: cell-based
Method: (§1) All bacteria pathogens tested clinically reported multi-drug resistant strains. The antibacterial activity was tested against Gram-negative strains namely; Pseudomonas aeruginosa (PSA), Klebsiella pneumoniae (KPC), Escherichia coli (E. coli) and Gram-positive Methicillin-resistant Staphylococcus aureus (MRSA). The minimum inhibitory concentration (MIC) is the lowest concentration of the antibiotic that inhibits microbial growths. MIC is determined by visual inspection or use of spectrophotometer plate reader to determine media turbidity. On the other hand, the minimum bactericidal concentration (MBC) is the lowest concentration that kills […] of bacterial growth. Cytotoxicity of peptides in the hepatic cell line, human skin fibroblast cell line, heart/myocardium cells, and human lung fibroblast cells is shown in FIGS. 36-46). […] (IFX-315)-Au-NP with antibiotics are shown in FIGS. 49-58 when the gold nanoparticles are formed by the peptide followed by addition of the antibiotic. […] (IFX-301) with antibiotics (1:1 ratio) first and then used in the synthesis of Au-NP in antibacterial activities is shown in FIGS. 59-68.
(§2) The MBC is identified by determining the lowest concentration of antibacterial agent that reduces the viability (concentration of peptides necessary to achieve a bactericidal effect) of the initial bacterial inoculum by ≥99.9%.

[14] = test system: Klebsiella pneumoniae (ATCC BAA-1705); assay type: cell-based
Method: as §1, §2

[15] = test system: Pseudomonas aeruginosa (ATCC 27883); assay type: cell-based; conditions: ATCC 27883
Method: as §1, §2

[16] = test system: Escherichia coli (ATCC 25922); assay type: cell-based
Method: as §1, §2

[17] = assay type: cell-based; conditions: Escherichia coli (ATCC 25922)
[18] = peptide in combination with antibiotics

| Molecule | MRSA (ATCC BAA-1556) MIC [1] [µg/mL] | KPC (ATCC BAA-1705) MIC [7] [µg/mL] | MRSA (ATCC BAA-1556) MBC [13] [µg/mL] | KPC (ATCC BAA-1705) MBC [14] [µg/mL] | PSA (ATCC 27883) MBC [15] [µg/mL] | E. coli (ATCC 25922) MBC [16] [µg/mL] | E. coli (ATCC 25922) MIC [9] [µg/mL] | PSA (ATCC 27883 MIC) [10] [µg/mL] | further results |
| --- | --- | --- | --- | --- | --- | --- | --- | --- | --- |
| N=C(N)NCCC[C@@H]1NC(=O)[C@H](CCCNC(=N)N)NC(=O)[C@H](CCCNC(=N)N)NC(=O)[C@H](CCCCN)NC(=O)[C@H](Cc2c[nH]c3ccccc23)NC(=O)[C@H](Cc2c[nH]c3ccccc23)NC(=O)[C@H](Cc2c[nH]c3ccccc23)NC(=O)[C@H](Cc2c[nH]c3ccccc23)NC(=O)[C@H](CCCNC(=N)N)NC(=O)[C@H](CCCNC(=N)N)NC1=O [IFX-315, [R5W4K]] (cyclo(RRRRRWWWWK)) | – | – | – | – | – | – | – | – | MIC MRSA ATCC BAA-1556 [1]: 4 µg/mL (≈ 2.42 µM); MIC (peptide) ([2]; peptide alone): MIC = 16 ug/ml; FIC (peptide) [2, 18]: FIC = 4 ug/ml; MRSA (ATCC BAA-1556) MIC [3]: 4 µg/mL; MIC (peptide) ([4]; peptide alone): MIC = 64 ug/ml; FIC (peptide) [4, 18]: FIC = 16 ug/ml; Klebsiella pneumoniae (ATCC BAA-1705) MIC [5]: 32 µg/mL; Pseudomonas aeruginosa (ATCC 27883) MIC [6]: 16 µg/mL; MIC K. pneumoniae (ATCC BAA-1705) [7]: 32 µg/mL (≈ 19.3 µM); MIC (peptide) ([8]; peptide alone): MIC = 16 ug/ml; FIC (peptide) [8, 18]: FIC = 4 ug/ml; MIC E. coli ATCC 25922 [9]: 16 µg/mL (≈ 9.67 µM); MIC P. aeruginosa ATCC 27883 [10]: 16 µg/mL (≈ 9.67 µM); Escherichia coli (ATCC 25922) MIC [11]: 16 µg/mL; MIC (peptide) ([12]; peptide alone): MIC = 8 ug/ml; FIC (peptide) [12, 18]: FIC = 2 ug/ml |
| N=C(N)NCCC[C@@H]1NC(=O)[C@H](CCCNC(=N)N)NC(=O)[C@H](CCCNC(=N)N)NC(=O)[C@H](CCCNC(=N)N)NC(=O)[C@@H](N)CSSC[C@@H](C(=O)O)NC(=O)[C@H](Cc2c[nH]c3ccccc23)NC(=O)[C@H](Cc2c[nH]c3ccccc23)NC(=O)[C@H](Cc2c[nH]c3ccccc23)NC(=O)[C@H](Cc2c[nH]c3ccccc23)NC1=O [IFX-327] (H-CRRRRWWWWC-OH; disulfide 1-10) | 32 | 256 | 64 | 512 | 512 | 512 | 256 | 512 | – |
| N=C(N)NCCC[C@H](NC(=O)[C@H](CCCNC(=N)N)NC(=O)[C@H](CCCNC(=N)N)NC(=O)[C@H](CCCNC(=N)N)NC(=O)[C@@H](N)CS)C(=O)N[C@@H](Cc1c[nH]c2ccccc12)C(=O)N[C@@H](Cc1c[nH]c2ccccc12)C(=O)N[C@@H](Cc1c[nH]c2ccccc12)C(=O)N[C@@H](Cc1c[nH]c2ccccc12)C(=O)N[C@@H](CS)C(=O)O [IFX-328] (H-CRRRRWWWWC-OH) | 64 | 16 | 128 | 32 | 512 | 512 | 256 | 512 | – |
| N=C(N)NCCC[C@@H]1NC(=O)[C@H](CS)NC(=O)[C@H](Cc2c[nH]c3ccccc23)NC(=O)[C@H](Cc2c[nH]c3ccccc23)NC(=O)[C@H](Cc2c[nH]c3ccccc23)NC(=O)[C@H](Cc2c[nH]c3ccccc23)NC(=O)[C@H](CS)NC(=O)[C@H](CCCNC(=N)N)NC(=O)[C@H](CCCNC(=N)N)NC(=O)[C@H](CCCNC(=N)N)NC1=O [IFX-329] (cyclo(RRRCWWWWCR)) | 8 | 32 | 32 | 32 | 128 | 64 | 32 | 128 | – |
| N=C(N)NCCC[C@@H]1NC(=O)[C@H](CCCNC(=N)N)NC(=O)[C@H](CCCNC(=N)N)NC(=O)[C@@H]2CSSC[C@H](NC(=O)[C@H](CCCNC(=N)N)NC1=O)C(=O)N[C@@H](Cc1c[nH]c3ccccc13)C(=O)N[C@@H](Cc1c[nH]c3ccccc13)C(=O)N[C@@H](Cc1c[nH]c3ccccc13)C(=O)N[C@@H](Cc1c[nH]c3ccccc13)C(=O)N2 [IFX-330] (cyclo(RRRCWWWWCR); disulfide 4-9) | 8 | 32 | 32 | 128 | 256 | 64 | 32 | 128 | – |
| N=C(N)NCCC[C@H](NC(=O)[C@H](CCCNC(=N)N)NC(=O)[C@H](CCCNC(=N)N)NC(=O)[C@@H](N)CCCNC(=N)N)C(=O)N[C@@H](CS)C(=O)N[C@@H](Cc1c[nH]c2ccccc12)C(=O)N[C@@H](Cc1c[nH]c2ccccc12)C(=O)N[C@@H](Cc1c[nH]c2ccccc12)C(=O)N[C@@H](Cc1c[nH]c2ccccc12)C(=O)N[C@@H](CS)C(=O)O [IFX-331] (H-RRRRCWWWWC-OH) | 16 | 64 | 32 | 128 | 265 | 32 | 32 | 128 | – |
| N=C(N)NCCC[C@H](NC(=O)[C@H](CCCNC(=N)N)NC(=O)[C@H](CCCNC(=N)N)NC(=O)[C@@H](N)CCCNC(=N)N)C(=O)N[C@H]1CSSC[C@@H](C(=O)O)NC(=O)[C@H](Cc2c[nH]c3ccccc23)NC(=O)[C@H](Cc2c[nH]c3ccccc23)NC(=O)[C@H](Cc2c[nH]c3ccccc23)NC(=O)[C@H](Cc2c[nH]c3ccccc23)NC1=O [IFX-333] (H-RRRRCWWWWC-OH; disulfide 5-10) | 16 | 32 | 32 | 64 | 128 | 32 | 16 | 128 | – |
| Polymyxin B | – | – | – | – | – | – | – | – | MIC, MgCl2 ([17]; MH broth + 1 mM MgCl2): 1.5 µg/mL; MIC, CaCl2 ([17]; MH broth + 2 mM CaCl2): 0.7 µg/mL; MIC, NH4Cl ([17]; MH broth + 6 mM NH4Cl): 0.7 µg/mL; MIC, NaCl ([17]; MH broth + 150 mM NaCl): 0.7 µg/mL; MIC, FBS ([17]; MH broth + FBS (25%)): 0.7 µg/mL; MIC, KCl ([17]; MH broth + […] KCl): 0.7 µg/mL; MIC, MH Media ([17]; MH broth, no supplement): 0.7 µg/mL |
